Measurements as given in patent US9399028B2, “Treatment of drug resistant cancer” (ROCKEFELLER UNIVERSITY (THE), priority 2012, dated 2016).
Entries after “also recorded” stand apart in the source; their conditions may differ. Where a name gives a salt, the structure may show the parent alone.

How the values were obtained:
[1] = tested on: human melanoma cells and endothelial cells; assay: In vitro cell proliferation, viability and serum starvation survival; assay type: cell-based; settings: for cell proliferation or cell viability rates: MeWo, HT-144, SK-Mel-334.2 cells, 1 μM, 5 days
Protocol: To determine the effects of miR-199a or miR-1908 over-expression and combinatorial LNA-induced miRNA inhibition on cell proliferation, 2.5×10^4 cells were seeded in triplicate in 6-well plates, and viable cells were counted after 5 days. […] Viable cells were counted after 8, 24, 48, 72, and 120 hours.
The number of viable cells was counter after 8, 16, and 24 hours.
To determine the effects of GW3965, T0901317, and Bexarotene on in vitro cell growth, 2.5×10^4 melanoma cells were seeded in triplicate in 6-well plates and cultured in the presence of DMSO, GW3965, T0901317, or Bexarotene at 1 μM each. After 5 days, the number of viable and dead cells was counted using the trypan blue dye (72-57-1, Sigma-Aldrich), which selectively labels dead cells.

ApoE = assay: Gene expression analysis by qRT-PCR in melanoma cells; assay type: cell-based, human; settings: 48 hours; for ApoE transcript expression: MeWo, HT-144, WM-266-4 human melanoma lines
Protocol: Total RNA was extracted from various cell lines using the miRvana kit (AM1560, Applied Biosystems, Austin, Tex.). The expression levels of mature miRNAs were quantified using the Taqman miRNA expression assay (4427975-0002228, Applied Biosystems). RNU44 was used as an endogenous control for normalization. For mRNA expression analyses, 600 ng of total RNA was reverse transcribed using the cDNA First-Strand Synthesis Kit (18080-051, Invitrogen), and roughly 200 ng of the resulting cDNA was then mixed with SYBR green PCR Master Mix (4309155, Applied Biosystems) and the appropriate primers. Each reaction was performed in quadruplicate, and mRNA expression was quantified by performing real-time PCR amplification using an ABI Prism 7900HT Real-Time PCR System (Applied Biosystems). GAPDH was used as an endogenous control for normalization. The following primers were used: […]
RNA was extracted from whole cell lysates using the Total RNA Purification Kit (I 7200, Norgen, Thorold, Canada). 600 ng of total RNA was then reverse transcribed into cDNA using the cDNA First-Strand Synthesis Kit (18080-051, Invitrogen), and quantitative real-time PCR amplification was performed as previously described (Pencheva et al., 2012) using an ABI Prism 7900HT Real-Time PCR System (Applied Biosystems, Austin, Tex.). Each PCR reaction was carried out in quadruplicates. Gene expression was normalized to GAPDH, which was used as an endogenous control.
For every sample, 600 ng of RNA was reverse transcribed into cDNA using the cDNA First-Strand Synthesis kit (Invitrogen). Approximately 200 ng of cDNA was mixed with SYBR® green PCR Master Mix and the corresponding forward and reverse primers specific for detection of human ApoE. Each reaction was carried out in quadruplicates, and ApoE mRNA expression levels were measured by quantitative real-time PCR amplification using an ABI Prism 7900HT Real-Time PCR System (Applied Biosystems). The relative ApoE expression was determined using the ΔΔCt method. GAPDH was used as an endogenous control for normalization purposes.

[2] = MeWo-LM2 or endothelial cells, ApoE 100 μM

Compound: O=C(O)Cc1cccc(OCCCN(Cc2cccc(C(F)(F)F)c2Cl)CC(c2ccccc2)c2ccccc2)c1 [GW3965 2, 3-[3-[N-(2-Chloro-3-trifluoromethylbenzyl)-(2,2-diphenylethyl)amino]propyloxy]phenylacetic acid hydrochloride]
- cell proliferation or cell viability rates [1]: did not affect
- ApoE transcript expression (ApoE): potently induce
- expression of ApoE (ApoE; parental MeWo cells): increased
- expression of DNAJA4 (ApoE; parental MeWo cells): increased

Compound: CC(CCOc1cccc(CC(=O)O)c1)N(Cc1cccc(C(F)(F)F)c1Cl)CC(c1ccccc1)c1ccccc1 (stereo not drawn) [SB742881 25]
- ApoE expression induction (ApoE; MeWo cells, 500 nM, 1 μM or 2 μM): varied degrees of ApoE expression induction; also recorded: potently induce

Compound: O=S(=O)(c1ccccc1)N(CC(F)(F)F)c1ccc(C(O)(C(F)(F)F)C(F)(F)F)cc1 [T0901317 1]
- cell proliferation or cell viability rates [1]: did not affect
- ApoE transcript expression (ApoE): potently induce

Compound: recombinant human ApoE3: recombinant human ApoE3 (4696, BioVision)
- melanoma cell or endothelial cell in vitro proliferation [1, 2]: did not affect
- survival in serum starvation conditions [1, 2]: did not affect
